Several values for one entry are separate records, joined by “and”; a condition that tells them apart may be missing. Identical values can stand only once. One block for each compound: values may come before it.
Columns and labels:
BALB/c female mice [1] = experiment: Contact hypersensitivity, TNBS sensitization / TNCB ear challenge (ear swelling); assay type: in vivo; conditions: for % SUPPRESSION: TNBS 35 µg
Description: BALB/c female mice were maintained in a specific pathogen-free colony. Age-matched mice between 8 and 12 weeks of age were maintained in filter-protected cages and fed mouse chow and water ad libitum. Lighting was controlled to provide 12 hours light-dark cycles.
A 7% (w/v) working solution of trinitrobenzene sulfonate (TNBS) was prepared in distilled water. […] For induction of sensitization, each of 5 Balb/c mice received epicutaneous application of 35 µg of TNBS via a Hilltop chamber for 5 hours.
A contact hypersensitivity response was elicited on day 5 by challenging the right ear of each mouse with 20 µl of 1% trinitronchlorobenzene (TNCB) (in acetone). Ear thickness was measured with a spring-loaded caliper immediately before challenge, and at 24 and 48 hours after challenge. Ear thickness was measured in mm X 10^-3.
The statistical significance of differences in the contact hypersensitivity response between control and treated mice was determined using Student's t test for two independent variables. Each group contained five mice. Negative control mice were treated for 24 hours with 100 µl of PBS, pH 5.5, and challenged on the right ear 5 days later with 20 µl of 1% TNCB.
The mice were then epicutaneously sensitized with 100 µl of 0.035% TNBS (w/v) in PBS, pH 5.5.
For pretreatment plus co-administration, mice were first pretreated for 24 hours as above. Thereafter, 6000 µg of UCA (100 µl of 6% solution, 60 mg/ml in PBS pH 5.5) were placed in the Hilltop chamber along with 35 µg of TNBS.
Sensitization with TNBS was induced as described above.

[2] = Percutaneous permeation of urocanic acid isomers through human cadaver skin (Franz cell diffusion chambers); assay type: in vitro ADME; conditions: in words
Description: Skin permeation experiments were undertaken to measure the flux of cis-UCA and the trans-UCA) through human skin. This information is required for topical delivery of cis-UCA using a TDS.
cis-UCA was prepared by ultraviolet irradiation of solutions of trans-UCA (obtained from Sigma Chemical Co., St. Louis, MO), as described above (see Example 1 above).
For skin permeation experiments, human cadaver skin was obtained and sectioned on a dermatome to yield a partial thickness skin of about 400 µm. Partial thickness skin samples were transferred to standard Franz cell diffusion chambers with the stratum corneum side up, and equilibrated with phosphate buffered saline (PBS) at pH 7.2. at 35°C in standard thermal blocks (Pierce Reacti-Therm).
Three different solution of UV-irradiated UCA were prepared. All samples were mixtures of both cis-UCA and trans-UCA, contained about between 55% to 67% cis-UCA. The three different solutions (0.5 ml) were applied to the skin samples in the donor chamber of the diffusion chamber, and fractions of the receptor solution (saline) were collected and the amount of cis and trans isomers that permeated through the skin determined by standard HPLC methods. […] The tissue extracts were neutralized and aliquots analyzed by HPLC.

BALB/c female mice [3] = experiment: Contact hypersensitivity, TNBS sensitization / TNCB ear challenge (ear swelling); assay type: in vivo
Balb/c mice [4] = experiment: Contact hypersensitivity, DNCB sensitization / DNCB ear challenge (ear swelling); assay type: in vivo
inflamed skin = experiment: Anti-inflammatory effect on bee-sting inflamed skin (single human subject); assay type: in vivo
Description: A subject was stung by a bee on the medial aspect of the lower portion of the right leg. Within one hour the skin site surrounding the bite became inflamed and an allergic reaction of the delayed hypersensitivity type was seen 24 hours later. […] This response persisted for several days.
The affected area was treated by application of 2% cis-UCA in a gel formulation (hydroxylpropylmethyl cellulose) to a 2-3 cm^2 area of inflamed skin. For a control, a similarly sized area of inflamed skin received the same hydroxylpropylmethyl cellulose gel without cis-UCA. Both treated areas were covered with a transparent dressing.

dermal mast cells = experiment: Chymase depletion from mast cells in skin organ cultures (immunohistochemical staining); assay type: cell-based
Description: Chymase is a proteolytic enzyme with chymotrypsin activity that is released from dermal mast cells upon degranulation. The enzyme has been implicated in proteolytic breakdown of endothelial cell basement membrane matrix proteins and to thereby facilitate leukocyte diapedesis. The release of chymase from mast cells was detected as a depletion of chymase-specific immunohistochemical staining observed in cryosections of the dermis in skin organ cultures. As a positive control 5 mM of morphine sulfate (MSO4 + ctrl) was added to the culture medium bathing the skin organ cultures. The negative control was untreated culture medium (SCM-ctrl). Cis-urocanic acid was added to the culture medium at 1 µg/ml and 10 µg/ml.

Balb/c mice [5] = experiment: Immune tolerance induction: re-sensitization with DNCB at a second skin site and re-challenge; assay type: in vivo; conditions: for EAR THICKNESS: DNCB 100 µg re-sensitization day 22, 24 Hours after re-challenge; for % SUPPRESSION / EAR SWELLING: DNCB day 22, 24 Hours
Description: To induce immune tolerance, Balb/c mice were treated with CUA in gel formulation as outlined above and a sensitization response elicited in the standard manner. Two weeks later, the previously sensitized mice were re-sensitized by applying 10 µl of 1% DNCB to a second skin site on shaved backs of both control (non-sensitized) and experimental (immunosuppressed by prior treatment with CUA) mice. Both control and experimental animals were challenged 5 days later by application of 20 µl of 1% DNCB to the left ear; ear thickness measurements were made 24 hours later.
Balb/c mice (N=8) were pretreated for 24 hours with 1% CUA in HPMC gel or 5% CUA in HPMC gel on the shaved abdominal skin (site 1), and challenged on the right ear five days later. The CUA-treated mice were immunosuppressed as shown in Table X. The same mice were re-sensitized with DNCB on a demarcated area of their shaved backs and rechallenged five days later on their left ears, and the ear thickness measured 24 hours post-challenge.

[6] = In vitro drug permeation from plastisol patches through human skin (paper example); assay type: in vitro ADME
[7] = 2 mg (1%) HPMC gel pretreat, DNCB 100 µg, 24 Hours
[8] = 2 mg (1%) HPMC gel pretreat, DNCB 100 µg, 72 Hours
[9] = 10 mg (5%) HPMC gel pretreat, DNCB 100 µg, 24 Hours
[10] = 10 mg (5%) HPMC gel pretreat, DNCB 100 µg, 72 Hours
[11] = 5 Hours Pretreat 15 mg + DNCB 100 µg, 24 Hours
[12] = 5 Hours Pretreat 15 mg + DNCB 100 µg, 48 Hours
[13] = 24 Hours Pretreat 10 mg, then DNCB gel 100 µg, 24 Hours
[14] = 24 Hours Pretreat 10 mg, then DNCB gel 100 µg, 48 Hours
[15] = 24 Hours Pretreat 15 mg + DNCB 100 µg, 24 Hours
[16] = 24 Hours Pretreat 15 mg + DNCB 100 µg, 48 Hours
[17] = Co-Delivery, 10 mg + DNCB 100 µg, 24 Hours
[18] = Co-Delivery, 10 mg + DNCB 100 µg, 48 Hours

SMILES: O=C(O)/C=C/c1cnc[nH]1 [trans-UCA, trans-urocanic acid, reference compound]
suppressive activity on contact sensitization (in words) (BALB/c female mice [1]; other experiments, compared with cis-UCA): much less suppressive activity
fluxes through human skin (comparison of isomers) [2]: comparable fluxes

SMILES: O=C(O)/C=C\c1c[nH]cn1 [cis-UCA, cis-urocanic acid]
% SUPPRESSION (BALB/c female mice [1]; intradermal injection 200 µg, 24 Hours): 48% and 48.4%
% SUPPRESSION (BALB/c female mice [1]; intradermal injection 200 µg, 48 Hours): 32% and 31.6%
% SUPPRESSION (BALB/c female mice [1]; pretreatment + co-administration, 24 Hours): 53%
% SUPPRESSION (BALB/c female mice [1]; pretreatment only, 6% UCA PBS pH 5.5, 24 Hours): 68%
fluxes through human skin (comparison of isomers) [2]: comparable fluxes
% SUPPRESSION (BALB/c female mice [3]; 200 µg, 24 hours before TNBS 3.5 mg, 24 hours after challenge): 36%
% SUPPRESSION (BALB/c female mice [3]; 600 µg, 24 hours before TNBS 3.5 mg, 24 hours after challenge): 63%
% SUPPRESSION (BALB/c female mice [3]; pretreatment + co-administration, TNBS 35 µg, 24 Hours): 52.8%
% SUPPRESSION (BALB/c female mice [3]; pretreatment + co-administration, TNBS 35 µg, 48 Hours): 56%
% SUPPRESSION (BALB/c female mice [3]; pretreatment + co-administration, TNBS 35 µg, 48 Hours, listed as cis-UROCANIC ACID): 55.8%
% SUPPRESSION (BALB/c female mice [3]; pretreatment only, 6% UCA PBS pH 5.5, TNBS 35 µg, 24 Hours): 68.3%
% SUPPRESSION (BALB/c female mice [3]; pretreatment only, 6% UCA PBS pH 5.5, TNBS 35 µg, 48 Hours): 77%
% SUPPRESSION (BALB/c female mice [3]; pretreatment only, 6% UCA PBS pH 5.5, TNBS 35 µg, 48 Hours, listed as cis-UROCANIC ACID): 77.2%
% SUPPRESSION (Balb/c mice [4]; [7]): 71%
EAR SWELLING (Balb/c mice [4]; [7]): 26 mm X 10^3
EAR SWELLING (Balb/c mice [4]; [8]): 48 mm X 10^3
EAR THICKNESS (Balb/c mice [4]; [8]): 288 ± 23 mm X 10^3
EAR THICKNESS (Balb/c mice [4]; 2 mg (1%) HPMC gel, 24 h pretreatment, DNCB 100 µg, 24 Hours): 270 ± 16 mm X 10^3
% SUPPRESSION (Balb/c mice [4]; [9]): 80%
EAR SWELLING (Balb/c mice [4]; [9]): 18 mm X 10^3
EAR THICKNESS (Balb/c mice [4]; [9]): 261 ± 15 mm X 10^3
% SUPPRESSION (Balb/c mice [4]; [10]): 59%
EAR SWELLING (Balb/c mice [4]; [10]): 30 mm X 10^3
EAR THICKNESS (Balb/c mice [4]; [10]): 270 ± 15 mm X 10^3
EAR THICKNESS (Balb/c mice [4]; 5 Hours Pretreat 15 mg (7.5% gel) + DNCB 100 µg, 24 Hours): 285 ± 27 mm X 10^3
% SUPPRESSION (Balb/c mice [4]; [11]): 46%
EAR SWELLING (Balb/c mice [4]; [11]): 42 mm X 10^3
% SUPPRESSION (Balb/c mice [4]; [12]): 27%
EAR SWELLING (Balb/c mice [4]; [12]): 42 mm X 10^3
EAR THICKNESS (Balb/c mice [4]; [12]): 284 ± 20 mm X 10^3
EAR THICKNESS (Balb/c mice [4]; 24 Hours Pretreat 10 mg (5% gel), then DNCB gel 100 µg, 24 Hours): 260 ± 19 mm X 10^3
% SUPPRESSION (Balb/c mice [4]; [13]): 52%
EAR SWELLING (Balb/c mice [4]; [13]): 29 mm X 10^3
% SUPPRESSION (Balb/c mice [4]; [14]): 69%
EAR SWELLING (Balb/c mice [4]; [14]): 20 mm X 10^3
EAR THICKNESS (Balb/c mice [4]; [14]): 259 ± 12 mm X 10^3
EAR THICKNESS (Balb/c mice [4]; 24 Hours Pretreat 15 mg (7.5% gel) + DNCB 100 µg, 24 Hours): 288 ± 25 mm X 10^3
% SUPPRESSION (Balb/c mice [4]; [15]): 59%
EAR SWELLING (Balb/c mice [4]; [15]): 47 mm X 10^3
% SUPPRESSION (Balb/c mice [4]; [16]): 54%
EAR SWELLING (Balb/c mice [4]; [16]): 36 mm X 10^3
EAR THICKNESS (Balb/c mice [4]; [16]): 276 ± 14 mm X 10^3
EAR THICKNESS (Balb/c mice [4]; Co-Delivery, 10 mg (5% gel) + DNCB 100 µg, 24 Hours): 277 ± 27 mm X 10^3
% SUPPRESSION (Balb/c mice [4]; [17]): not statistically significant
EAR SWELLING (Balb/c mice [4]; [17]): 39 mm X 10^3
% SUPPRESSION (Balb/c mice [4]; Co-Delivery, 10 mg + DNCB 100 µg, 24 Hours, listed as UCA): 28%
% SUPPRESSION (Balb/c mice [4]; [18]): 29%
EAR SWELLING (Balb/c mice [4]; [18]): 43 mm X 10^3
EAR THICKNESS (Balb/c mice [4]; [18]): 273 ± 23 mm X 10^3
appearance of treated skin site (inflamed skin; 2% gel, 14 hours after initiation of treatment): depressed (appearing normal) and lacked any red color
erythema and induration of inflamed skin (inflamed skin; 2% in hydroxylpropylmethyl cellulose gel, 2-3 cm^2 area, approximately 1 hour after application): erythema and induration disappeared
chymase positive mast cell per mm^2 (dermal mast cells; 1 µg/ml in culture medium): 22 ± 20 per mm^2
chymase positive mast cell per mm^2 (dermal mast cells; 10 µg/ml in culture medium): 20 ± 10 per mm^2
EAR THICKNESS (Balb/c mice [5]; 2 mg (1% HPMC gel) day -1): 327 ± 60 mm X 10^3
% SUPPRESSION (Balb/c mice [5]; 2 mg day -1): 51%
EAR SWELLING (Balb/c mice [5]; 2 mg day -1): 70 mm X 10^3
EAR THICKNESS (Balb/c mice [5]; 10 mg (5% HPMC gel) day -1): 334 ± 17 mm X 10^3
% SUPPRESSION (Balb/c mice [5]; 10 mg day -1): 42%
EAR SWELLING (Balb/c mice [5]; 10 mg day -1): 84 mm X 10^3

permeation rate of ISDN [6]: significantly enhances
SMILES: CCCCCCCC/C=C\CCCCCCCC(=O)O [oleic acid]
